Data: the NIST ThermoML archive (doi:10.1016/j.jct.2018.01.008)
± gives the expanded uncertainty stated by the source. Each block holds one molecule with its values, some of them ahead of it.

Key:
[1] = Molar enthalpy of transition or fusion; settings: DSC
[2] = for Normal melting temperature: DTA
[3] = xn = mol fraction of the nth substance listed; settings: 298.15 K, 77 kPa, Crystal of unknown type, Transient plane heat source method

Molar enthalpy of transition or fusion ([1]; Crystal): 8.57 ± 0.884 kcal/mol
Normal melting temperature ([2]; Crystal): 150.17 ± 2 °C
SMILES: O=C(O)CCCCC(=O)O [1,6-hexanedioic acid]

Molar enthalpy of transition or fusion ([1]; Crystal 1): 6.94 ± 0.717 kcal/mol
Molar enthalpy of transition or fusion ([1]; Crystal 2): 2.07 ± 0.215 kcal/mol
Normal melting temperature ([2]; Crystal 1): 140.63 ± 2 °C
Triple point temperature ([2]; Crystal 2, DSC): 405.59 ± 2.1 K
SMILES: O=C(O)CCCCCCC(=O)O [1,8-octanedioic acid]

thermal conductivity ([3]; x2 = 0.936): 0.172 ± 0.013 W/m/K
SMILES: O=C(O)CCCCCCC(=O)O [1,8-octanedioic acid] + CCCCCCCCCCCCCCCCCC(=O)O

Second part, the molecule before the results:

SMILES: O=C(O)CCCCCCCCC(=O)O [1,10-decanedioic acid]
Molar enthalpy of transition or fusion ([1]; Crystal): 10.6 ± 1.08 kcal/mol
Normal melting temperature ([2]; Crystal): 131.8 ± 2 °C

SMILES: O=C(O)CCCCCCCCC(=O)O [1,10-decanedioic acid] + CCCCCCCCCCCCCCCCCC(=O)O
thermal conductivity ([3]; x2 = 0.945): 0.1802 ± 0.013 W/m/K

SMILES: CCCCCCCCCCCCCCCCCC(=O)O [octadecanoic acid]
Molar enthalpy of transition or fusion ([1]; Crystal): 13.7 ± 1.39 kcal/mol
Normal melting temperature ([2]; Crystal): 69 ± 2 °C

SMILES: CCCCCCCCCCCCCCCCCC(=O)O [octadecanoic acid] + O=C(O)CCCCC(=O)O
thermal conductivity ([3]; x1 = 0.962): 0.1439 ± 0.011 W/m/K
